Key:
[1] = target: T1, Itk (Homo sapiens, UniProt Q08881); test: Itk in vitro inhibitory activity in radioassay (33P incorporation into Phospholipase C-γ-1); type: biochemical; settings: 20 μM ATP solution, read-out: IC50 over Itk
T1 construct: purchased Invitrogen
T1 sequence (Q08881 1-620): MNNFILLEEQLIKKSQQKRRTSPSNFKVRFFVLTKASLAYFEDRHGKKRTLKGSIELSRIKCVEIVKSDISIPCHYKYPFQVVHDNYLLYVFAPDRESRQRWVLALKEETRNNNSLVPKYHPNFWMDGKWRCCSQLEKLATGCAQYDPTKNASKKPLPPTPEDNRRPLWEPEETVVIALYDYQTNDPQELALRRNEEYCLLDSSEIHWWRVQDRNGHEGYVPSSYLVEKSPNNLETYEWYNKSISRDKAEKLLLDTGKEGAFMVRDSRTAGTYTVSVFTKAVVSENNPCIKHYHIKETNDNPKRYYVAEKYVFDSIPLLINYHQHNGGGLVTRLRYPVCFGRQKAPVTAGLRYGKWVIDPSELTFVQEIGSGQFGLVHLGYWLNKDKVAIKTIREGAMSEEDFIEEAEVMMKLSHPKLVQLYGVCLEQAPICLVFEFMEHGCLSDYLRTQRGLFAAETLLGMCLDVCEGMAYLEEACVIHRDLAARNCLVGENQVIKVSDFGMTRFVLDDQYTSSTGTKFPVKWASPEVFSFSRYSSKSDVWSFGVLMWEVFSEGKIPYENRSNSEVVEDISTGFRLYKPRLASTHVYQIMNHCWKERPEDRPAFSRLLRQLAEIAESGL
Procedure: The Itk protein kinase activity (Invitrogen) was determined by measuring the incorporation of ^33P from γ-[^33P] ATP into the Phospholipase C-γ-1 substrate (Calbiochem). The dilution series of the compound of the present invention were dissolved in DMSO. The diluted solution (1 μl) of the compounds of the present invention in DMSO was added to a 96-well assay plate. Additionally, Itk kinase solution (39 μL) composed of 3.2 nM Itk (Invitrogen) in reaction buffer (12.5 mM Tris (pH 7.5), 0.01% Triton X-100, 5% glycerol, 10 mM MgCl2, 1 mM EGTA, 5 mM glycerol 2-phosphate, 2 mM DTT and 0.5 mM sodium orthovanadate) was added to the assay plates. The solution was pre-incubated for 20 minutes at 30° C. with shaking. Then ATP/substrate solution (10 μl) composed of […] Phospholipase C-γ-1 (Calbiochem), 1.5% v/v γ-^33P-ATP (PerkinElmer), 20 μM ATP and reaction buffer was added. After incubating at 30° C. with shaking for 70 minutes, the reaction was stopped by adding 10 μl of 0.6 M phosphoric acid to each well. The each reaction from the assay plate was transferred and captured on a phosphocellulose 96-well plate (Millipore MAPHNOB). The reaction mixture was analyzed on the PerkinElmer TopCount NXT HTS 96-well Liquid Scintillation counter.
Inhibition rate (%) of the compound was calculated with the following formula: Inhibition rate(%)={1−(Bx−B100)/(B0−B100)}×100
BX: average counts for the compound
B100: average counts for 100% inhibition control (i.e., no enzyme, no compound)
B0: average counts for 0% inhibition control (i.e., no compound)
The value of 50% inhibition rate (IC50) for the compound was defined as the concentration of the test compound that caused a 50% decrease in the maximum inhibition. IC50 values were calculated from replicate curves by non-linear regression using the sigmoidal dose-response equation in GraphPad Prism software.

[2] = target: Lck (Homo sapiens, UniProt P06239); test: Inhibitory activity to Lck (similar procedure); type: biochemical; settings: selectivity ratio
Procedure: Study of inhibitory activity to Lck was performed in similar procedure above described.
(§1) Study of inhibitory activity to other various kinases (e.g. Lck, InsR, Btk) was performed in similar procedure above described.

[3] = target: InsR (Homo sapiens, UniProt P06213); test: Inhibitory activity to InsR (similar procedure); type: biochemical; settings: selectivity ratio
Procedure: as §1

[4] = target: Btk (Homo sapiens, UniProt Q06187); test: Inhibitory activity to Btk (similar procedure); type: biochemical; settings: selectivity ratio
Procedure: as §1

[5] = system: IL-2 production in mouse whole blood; test: Mouse whole blood IL-2 assay; type: cell-based, BALB/c mouse; settings: anti-CD3/anti-CD28 stimulation, 18 hours, IL-2 by ELISA
Procedure: The dilution series of the compound of the present invention in DMSO were further diluted by addition of RPMI1640 medium (Invitrogen). The diluted compound solution (6.5 μl) was added to a 96-well plate. BALB/c mouse heparinized peripheral blood was diluted 1:2 in RPMI1640, and added 123.5 μl of the diluted blood to the compound plate. The blood samples were pre-incubated at 37° C. for 30 minutes. Anti-CD3 and anti-CD28 antibody mixture (6 μl; 20 μg/mL each) was spotted into a 96 well assay plates. Pre-treated blood samples (114 μl) were added to each well and the plate was incubated for 18 hours at 37° C. in 5% CO2. After the incubation, supernatants were collected by centrifugation at 300×g for 10 min. IL-2 concentration was determined by ELISA method. The inhibition rate (%) of the compound was calculated with the following formula: Inhibition rate(%)={1−(Cx−C100)/(C0−C100)}×100
CX: IL-2 concentration for the compound
C100: IL-2 concentration for 100% inhibition control (i.e., no stimulation, no compound)
C0: IL-2 concentration for 0% inhibition control (i.e., no compound)
The value of 50% inhibition rate (IC50) for the compound was determined from inhibition curve based on inhibition rate at each concentration of the compound of the present invention.

Sequence of Btk (Q06187 whole entry, species assumed): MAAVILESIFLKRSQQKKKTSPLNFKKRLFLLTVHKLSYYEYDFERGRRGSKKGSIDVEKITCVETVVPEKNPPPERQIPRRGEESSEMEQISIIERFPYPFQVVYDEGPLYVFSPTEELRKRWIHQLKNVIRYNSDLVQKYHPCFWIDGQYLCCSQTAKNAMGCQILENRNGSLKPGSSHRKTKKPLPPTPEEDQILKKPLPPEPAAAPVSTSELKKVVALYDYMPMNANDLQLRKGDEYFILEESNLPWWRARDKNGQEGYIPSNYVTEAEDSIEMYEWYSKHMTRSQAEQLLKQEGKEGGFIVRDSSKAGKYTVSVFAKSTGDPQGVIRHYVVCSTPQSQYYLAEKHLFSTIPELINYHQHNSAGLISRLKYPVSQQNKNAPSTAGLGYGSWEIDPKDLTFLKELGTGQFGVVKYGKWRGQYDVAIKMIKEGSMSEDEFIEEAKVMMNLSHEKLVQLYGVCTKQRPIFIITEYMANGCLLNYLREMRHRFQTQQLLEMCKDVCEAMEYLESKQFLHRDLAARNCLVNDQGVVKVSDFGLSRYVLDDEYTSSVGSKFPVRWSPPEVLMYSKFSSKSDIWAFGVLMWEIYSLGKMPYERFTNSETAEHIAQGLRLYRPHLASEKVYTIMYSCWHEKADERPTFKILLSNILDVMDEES
Sequence of Lck (P06239 whole entry, species assumed): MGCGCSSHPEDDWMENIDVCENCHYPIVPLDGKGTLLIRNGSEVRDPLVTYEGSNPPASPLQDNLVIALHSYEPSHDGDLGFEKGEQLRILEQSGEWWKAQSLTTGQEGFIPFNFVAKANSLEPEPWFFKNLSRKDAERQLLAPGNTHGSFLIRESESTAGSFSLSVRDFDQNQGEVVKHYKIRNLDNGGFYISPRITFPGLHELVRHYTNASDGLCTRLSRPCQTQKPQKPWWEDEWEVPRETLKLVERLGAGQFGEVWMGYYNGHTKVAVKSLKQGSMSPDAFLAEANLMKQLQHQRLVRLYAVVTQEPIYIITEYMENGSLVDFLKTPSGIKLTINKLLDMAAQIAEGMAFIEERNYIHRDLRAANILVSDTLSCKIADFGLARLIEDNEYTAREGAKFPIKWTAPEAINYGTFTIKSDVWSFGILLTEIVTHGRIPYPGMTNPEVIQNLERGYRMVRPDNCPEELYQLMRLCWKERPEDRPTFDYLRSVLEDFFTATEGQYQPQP
Sequence of InsR (P06213 28-1382, species assumed): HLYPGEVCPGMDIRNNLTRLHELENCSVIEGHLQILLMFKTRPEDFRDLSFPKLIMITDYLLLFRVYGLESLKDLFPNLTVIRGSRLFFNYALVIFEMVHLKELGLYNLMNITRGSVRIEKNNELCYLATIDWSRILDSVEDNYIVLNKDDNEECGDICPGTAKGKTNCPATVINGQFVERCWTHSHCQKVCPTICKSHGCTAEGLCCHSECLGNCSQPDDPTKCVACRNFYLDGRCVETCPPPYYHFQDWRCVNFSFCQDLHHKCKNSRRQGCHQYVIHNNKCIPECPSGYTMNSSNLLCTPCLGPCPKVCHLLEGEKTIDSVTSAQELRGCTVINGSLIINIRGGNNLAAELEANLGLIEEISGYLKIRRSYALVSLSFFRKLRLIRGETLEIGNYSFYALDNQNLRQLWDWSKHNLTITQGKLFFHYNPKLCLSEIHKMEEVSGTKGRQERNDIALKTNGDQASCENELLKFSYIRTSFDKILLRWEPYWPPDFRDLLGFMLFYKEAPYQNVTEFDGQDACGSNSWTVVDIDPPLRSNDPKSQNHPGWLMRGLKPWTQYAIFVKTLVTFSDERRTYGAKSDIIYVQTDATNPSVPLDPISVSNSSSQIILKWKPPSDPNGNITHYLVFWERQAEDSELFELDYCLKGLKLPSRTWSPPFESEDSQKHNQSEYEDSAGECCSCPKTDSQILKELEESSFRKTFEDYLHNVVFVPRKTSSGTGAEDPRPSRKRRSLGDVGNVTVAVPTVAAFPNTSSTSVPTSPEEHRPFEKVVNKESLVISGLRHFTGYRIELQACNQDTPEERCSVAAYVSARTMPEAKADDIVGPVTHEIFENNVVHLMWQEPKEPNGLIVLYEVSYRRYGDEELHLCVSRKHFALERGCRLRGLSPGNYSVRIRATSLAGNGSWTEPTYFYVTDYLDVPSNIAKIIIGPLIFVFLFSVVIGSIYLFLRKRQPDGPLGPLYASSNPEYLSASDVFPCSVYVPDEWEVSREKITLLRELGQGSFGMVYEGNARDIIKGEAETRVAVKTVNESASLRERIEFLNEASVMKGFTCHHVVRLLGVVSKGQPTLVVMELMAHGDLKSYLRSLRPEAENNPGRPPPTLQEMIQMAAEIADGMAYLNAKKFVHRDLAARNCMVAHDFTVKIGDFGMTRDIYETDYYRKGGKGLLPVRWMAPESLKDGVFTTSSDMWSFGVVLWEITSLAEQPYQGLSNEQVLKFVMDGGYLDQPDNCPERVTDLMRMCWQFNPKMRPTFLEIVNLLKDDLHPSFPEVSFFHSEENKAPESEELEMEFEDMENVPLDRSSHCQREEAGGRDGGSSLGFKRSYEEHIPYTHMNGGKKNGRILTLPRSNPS

Structure (SMILES)	IC50 [1]	Lck[IC50]/Itk[IC50] [2]	InsR[IC50]/Itk[IC50] [3]	Btk[IC50]/Itk[IC50] [4]	IC50 [5]
Cc1c(C(=O)Nc2ccc(-c3nc(-c4cccc(N5CCOCC5)n4)cnc3N)cc2)c(=O)n(-c2ccccc2)n1C [Example 7(6), N-(4-{3-amino-6-[6-(4-morpholinyl)-2-pyridinyl]-2-pyrazinyl}phenyl)-1,5-dimethyl-3-oxo-2-phenyl-2,3-dihydro-1H-pyrazole-4-carboxamide]	2 nM	85	100	>200	–
COC1CCN(c2cccc(-c3cnc(N)c(-c4ccc(NC(=O)c5c(C)n(C)n(-c6cccc(C)c6)c5=O)cc4)n3)n2)CC1 [Example 17(11), N-(4-{3-amino-6-[6-(4-methoxy-1-piperidinyl)-2-pyridinyl]-2-pyrazinyl}phenyl)-1,5-dimethyl-2-(3-methylphenyl)-3-oxo-2,3-dihydro-1H-pyrazole-4-carboxamide]	1 nM	>300	>300	>1000	–
COc1cccc(-n2c(=O)c(C(=O)Nc3ccc(-c4nc(-c5ccnc(N6CC(OC)C6)c5)cnc4N)nc3)c(C)n2C)c1 [Example 29(33), N-(6-{3-amino-6-[2-(3-methoxy-1-azetidinyl)-4-pyridinyl]-2-pyrazinyl}-3-pyridinyl)-2-(3-methoxyphenyl)-1,5-dimethyl-3-oxo-2,3-dihydro-1H-pyrazole-4-carboxamide]	4 nM	–	–	–	–
COC1CN(c2cccc(-c3cnc(N)c(-c4ccc(NC(=O)c5c(C)n(C)n(-c6cccc(Cl)c6)c5=O)cc4)n3)n2)C1 [Example 14(12), N-(4-{3-amino-6-[6-(3-methoxy-1-azetidinyl)-2-pyridinyl]-2-pyrazinyl}phenyl)-2-(3-chlorophenyl)-1,5-dimethyl-3-oxo-2,3-dihydro-1H-pyrazole-4-carboxamide]	2 nM	185	1400	>500	–
Cc1c(C(=O)Nc2ccc(-c3nc(-c4ccnc(N5CCOCC5)c4)cnc3N)nc2)c(=O)n(-c2cccc(Cl)c2)n1C [Example 29(2), N-(6-{3-amino-6-[2-(4-morpholinyl)-4-pyridinyl]-2-pyrazinyl}-3-pyridinyl)-2-(3-chlorophenyl)-1,5-dimethyl-3-oxo-2,3-dihydro-1H-pyrazole-4-carboxamide]	1 nM	>360	>1000	>1000	350 nM
